Target: T1, CobNST (Rhodobacter capsulatus, UniProt D5AV09)
T1 construct: gene cobN; recombinant from E. coli BL21(DE3) pLysS; N-terminal 6xHis-tag and thrombin site on CobN (pET14b) and CobS (pET3a), CobT untagged, CobST copurified; 13 subunits; with Aerobic cobaltochelatase subunit CobS; Aerobic cobaltochelatase subunit CobT
T1 sequence (D5AV09 1-1085): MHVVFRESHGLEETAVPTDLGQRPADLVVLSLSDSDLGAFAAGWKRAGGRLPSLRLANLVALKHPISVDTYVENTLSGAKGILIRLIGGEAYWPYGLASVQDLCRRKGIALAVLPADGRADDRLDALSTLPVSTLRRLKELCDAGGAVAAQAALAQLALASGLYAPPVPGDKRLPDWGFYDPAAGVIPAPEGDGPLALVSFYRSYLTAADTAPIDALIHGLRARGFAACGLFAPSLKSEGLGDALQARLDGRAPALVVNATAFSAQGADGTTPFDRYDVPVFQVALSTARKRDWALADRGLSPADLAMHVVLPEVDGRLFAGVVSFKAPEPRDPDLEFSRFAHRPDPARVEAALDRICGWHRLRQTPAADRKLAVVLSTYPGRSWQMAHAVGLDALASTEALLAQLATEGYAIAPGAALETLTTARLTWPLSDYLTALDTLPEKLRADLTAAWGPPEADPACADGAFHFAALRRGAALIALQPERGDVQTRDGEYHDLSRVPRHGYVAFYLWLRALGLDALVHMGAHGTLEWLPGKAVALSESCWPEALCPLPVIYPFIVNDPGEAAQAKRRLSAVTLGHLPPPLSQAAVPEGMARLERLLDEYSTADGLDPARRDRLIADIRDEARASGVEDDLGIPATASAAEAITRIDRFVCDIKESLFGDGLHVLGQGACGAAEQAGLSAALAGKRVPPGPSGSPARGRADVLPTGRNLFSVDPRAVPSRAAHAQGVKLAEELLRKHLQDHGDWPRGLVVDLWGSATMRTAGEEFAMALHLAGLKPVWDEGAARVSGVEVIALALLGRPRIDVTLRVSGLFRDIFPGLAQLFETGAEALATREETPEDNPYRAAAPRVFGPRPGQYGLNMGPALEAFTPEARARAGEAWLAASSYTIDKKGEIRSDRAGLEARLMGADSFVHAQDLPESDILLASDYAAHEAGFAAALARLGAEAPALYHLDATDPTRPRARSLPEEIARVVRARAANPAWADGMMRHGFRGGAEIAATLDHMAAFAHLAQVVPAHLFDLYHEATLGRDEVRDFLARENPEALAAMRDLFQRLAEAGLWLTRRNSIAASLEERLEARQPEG
T1 sequence (D5AQ14 1-324 partner): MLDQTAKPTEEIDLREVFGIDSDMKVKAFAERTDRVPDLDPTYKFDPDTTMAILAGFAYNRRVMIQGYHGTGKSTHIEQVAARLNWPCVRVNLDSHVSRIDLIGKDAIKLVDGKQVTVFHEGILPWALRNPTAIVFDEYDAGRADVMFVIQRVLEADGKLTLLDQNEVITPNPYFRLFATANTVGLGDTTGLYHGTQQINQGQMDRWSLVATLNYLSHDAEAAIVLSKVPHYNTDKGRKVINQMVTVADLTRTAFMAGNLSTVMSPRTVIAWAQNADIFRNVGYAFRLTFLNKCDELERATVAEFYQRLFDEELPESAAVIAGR
T1 sequence (D5AQ13 1-624 partner): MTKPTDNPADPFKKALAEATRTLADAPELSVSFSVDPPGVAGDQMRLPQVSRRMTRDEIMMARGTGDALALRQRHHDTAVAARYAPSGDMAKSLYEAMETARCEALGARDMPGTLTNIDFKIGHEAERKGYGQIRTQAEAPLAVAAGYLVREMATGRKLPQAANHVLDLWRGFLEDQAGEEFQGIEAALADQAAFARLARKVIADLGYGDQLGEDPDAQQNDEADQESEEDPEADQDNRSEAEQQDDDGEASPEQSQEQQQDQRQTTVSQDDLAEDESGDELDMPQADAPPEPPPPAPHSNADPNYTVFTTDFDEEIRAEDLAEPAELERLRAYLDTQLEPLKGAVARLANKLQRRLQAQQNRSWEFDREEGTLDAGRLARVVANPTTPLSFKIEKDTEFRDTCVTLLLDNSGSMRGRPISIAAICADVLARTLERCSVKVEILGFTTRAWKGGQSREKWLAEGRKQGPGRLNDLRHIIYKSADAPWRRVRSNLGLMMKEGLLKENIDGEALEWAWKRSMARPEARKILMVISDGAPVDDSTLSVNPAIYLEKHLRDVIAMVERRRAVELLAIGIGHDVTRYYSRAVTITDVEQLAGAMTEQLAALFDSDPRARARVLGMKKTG
Assay: UV-visible absorbance at […] nm, Co(II) chelation
Format: biochemical
Conditions: 10 uM HBAD, 100 uM total Co(II), 10 mM MgCl2, 5 mM ATP, 50 mM Hepes pH 7.0, 100 mM NaCl, 20-25 C, anaerobic

Q: `C/C1=C2N=C(/C=C3\N/C(=C(/C)C4=N[C@@](C)([C@@H]5N=C1[C@](C)(CCC(=O)O)[C@H]5CC(=O)O)[C@@](C)(CC(N)=O)[C@@H]4CCC(=O)O)[C@@](C)(CC(N)=O)[C@@H]3CCC(=O)O)C(C)(C)[C@@H]/2CCC(=O)O` [HBAD, hydrogenobyrinic acid a,c-diamide] was tested. Which “UV-visible absorbance at 330 nm, Co(II) chelation” value did it give?
A: Its value is “Metalation of HBAD to form cobyrinic acid a,c-diamide (CBAD) was followed by changes in the UV–visible absorbance”.

Source: publication PMC10206600, “Two Distinct Thermodynamic Gradients for Cellular Metalation of Vitamin B12” (JACS Au, 2023)
